Literature values as cited in US10251814B2, “Cefuroxime safety delivery system” (CIS PHARMA AG, priority 2011, dated 2019).
Read-outs that look alike come from different tables or passages of the source.

What was measured:
endophthalmitis = conditions: 16,603 patients; cefuroxime 1 mg in 0.1 ml normal saline intracameral at end of surgery; levofloxacin drops prior and subsequent to surgery
[1] = in 48 hours, at room temperature
[2] = system: human corneal endothelial cells; conditions: 24-hour exposure
[3] = 1 mg in 0.1 ml of aqueous solution

hydrolysis rate in aqueous solution [1]: about 10%
mean intracameral concentration (after one hour, intracameral administration of 1 mg in 0.1 ml): 0.756 mg/mL
mean intracameral concentration (shortly after intracameral administration of 1 mg in 0.1 ml): 2.742 mg/mL
SMILES: CO/N=C(\C(=O)N[C@@H]1C(=O)N2C(C(=O)O)=C(COC(N)=O)CS[C@H]12)c1ccco1 [cefuroxime]
reduction of the risk for endophthalmitis (endophthalmitis): nearly five fold
concentration resulting in a significant reduction in cell viability [2]: exceeding 2.75 mg/ml
safety of intracameral administration [3]: has been established
